Test results from patent EP4667483A1, “HUMAN TRANSFERRIN RECEPTOR-BINDING PEPTIDE” (JCR Pharmaceuticals Co., Ltd., priority 2023, dated 2024).
pKd: −log10 of the molar value. Numbered stars: 1 amine (or outer) side, 2 acyl side, 3 side chain; on linkers, the order of the positions; unused ones are H or OH. Bridge positions count the residues as written; N and C are the ends. Square brackets hold non-standard residues; d marks the D form. Side chains are listed from the residue outwards. Peptide text beside a SMILES is read from it. * marks the point of attachment. Trp(1-CH2COOH) = N[C@@H](Cc1cn(CC(=O)O)c2ccccc12)C(=O)O; CH2CON(CH2CH2)2NCH2COOH = O=C(O)CN1CCN(C(=O)C*)CC1; NMePhe(4-COOH) = CN[C@@H](Cc1ccc(C(=O)O)cc1)C(=O)O; X1 = O=C([C@H](Cc1cccc(C(=O)[*:3])c1)N[*:1])[*:2]; Nle(6-morpholino) = N[C@@H](CCCCN1CCOCC1)C(=O)O; Phe(3-COOH) = N[C@@H](Cc1cccc(C(=O)O)c1)C(=O)O; Trp(7-aza) = N[C@@H](Cc1c[nH]c2ncccc12)C(=O)O; NH(CH2CH2O)8Me = COCCOCCOCCOCCOCCOCCOCCOCCN*; NMePhe(3-Cl) = CN[C@@H](Cc1cccc(Cl)c1)C(=O)O; Piperazinyl(4-CH2COOH) = O=C(O)CN1CCN(*)CC1; 3Pal(6-NH2) = Nc1ccc(C[C@H](N)C(=O)O)cn1; NMeW = CN[C@@H](Cc1c[nH]c2ccccc12)C(=O)O; Tyr(3-Me) = Cc1cc(C[C@H](N)C(=O)O)ccc1O; NMeY = CN[C@@H](Cc1ccc(O)cc1)C(=O)O; Nva(3-Et) = CCC(CC)[C@H](N)C(=O)O; 4Pal = N[C@@H](Cc1ccncc1)C(=O)O; PEG4 = NCCOCCOCCOCCOCCC(=O)O; Carboxymethyl = O=C(O)C*; CO = O=C([*:1])[*:2]

How the values were obtained:
[1] = target: T1, human transferrin receptor (hTfR) (Homo sapiens, UniProt P02786); assay: SPR measurement under pH 7.4 conditions (Biacore T200, CM3 chip, hTfR captured by His Tag antibody); format: binding; conditions: read-out: hTfR SPR pH7.4 KD
[2] = target: T1, human transferrin receptor (hTfR); assay: SPR measurement under pH 6.0 conditions (Biacore T200, NTA chip, immobilized hTfR); format: binding; conditions: read-out: hTfR SPR pH6.0 KD
[3] = SPR, pH 7.4, peptide with the linker named in the table
[4] = SPR, pH 6.0, peptide with the linker named in the table

T1 sequence (P02786 whole entry): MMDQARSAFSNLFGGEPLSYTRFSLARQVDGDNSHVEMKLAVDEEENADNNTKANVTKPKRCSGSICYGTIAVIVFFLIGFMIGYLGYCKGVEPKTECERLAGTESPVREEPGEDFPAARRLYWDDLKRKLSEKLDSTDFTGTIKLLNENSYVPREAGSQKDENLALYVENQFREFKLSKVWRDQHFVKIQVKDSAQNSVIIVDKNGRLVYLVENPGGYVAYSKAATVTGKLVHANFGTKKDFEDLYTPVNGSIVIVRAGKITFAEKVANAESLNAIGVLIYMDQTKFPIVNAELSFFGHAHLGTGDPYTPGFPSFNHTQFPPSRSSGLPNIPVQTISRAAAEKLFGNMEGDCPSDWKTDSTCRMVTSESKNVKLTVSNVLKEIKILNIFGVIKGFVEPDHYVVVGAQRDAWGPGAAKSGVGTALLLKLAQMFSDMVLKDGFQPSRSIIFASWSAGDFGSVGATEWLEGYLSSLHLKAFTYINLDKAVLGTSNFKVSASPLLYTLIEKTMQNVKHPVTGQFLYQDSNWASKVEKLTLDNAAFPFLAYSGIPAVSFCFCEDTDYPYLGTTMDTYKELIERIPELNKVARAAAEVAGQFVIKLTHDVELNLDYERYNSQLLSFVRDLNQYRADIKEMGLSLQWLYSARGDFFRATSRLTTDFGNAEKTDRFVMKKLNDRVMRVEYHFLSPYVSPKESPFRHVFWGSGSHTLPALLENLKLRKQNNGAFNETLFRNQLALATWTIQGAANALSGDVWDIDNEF

SMILES | pKd [1, 3] | pKd [2, 4] | pKd ([1]; pH 7.4, single-cycle kinetics) | pKd ([2]; pH 6.0, single-cycle kinetics)
CCC(CC)[C@@H]1NC(=O)[C@H](Cc2ccc(OCC(=O)O)cc2)NC(=O)[C@H](Cc2ccc(O)cc2)NC(=O)[C@H](CC(N)=O)NC(=O)[C@H](Cc2cn(CC(=O)O)c3ccccc23)NC(=O)[C@H](C(C)C)NC(=O)[C@H](Cc2cccc(Cl)c2)N(C)C(=O)[C@H](C(C)C)NC(=O)[C@H](C)NC(=O)CSC[C@@H](C(=O)NCCOCCOCCOCCOCCC(N)=O)NC(=O)[C@H](Cc2ccc(O)cc2)N(C)C(=O)[C@H](Cc2ccc(O)c(C)c2)NC(=O)[C@H](CCCNC(=N)N)NC(=O)[C@H](CCC(N)=O)NC(=O)[C@H]([C@@H](C)CC)NC1=O [compound 99] ({CH2CO}-AV[NMePhe(3-Cl)]V[Trp(1-CH2COOH)]NYY(Carboxymethyl)[Nva(3-Et)]IQR[Tyr(3-Me)][NMeY]C[PEG4]-NH2; thioether N-15) | 8.04 | 7.25 | – | –
CC[C@H](C)[C@@H]1NC(=O)[C@H](Cc2ccc(OC)cc2)NC(=O)[C@H](CCCNC(=N)N)NC(=O)[C@H](CC(N)=O)NC(=O)[C@H](Cc2c[nH]c3ccccc23)N(C)C(=O)[C@H](C(C)C)NC(=O)[C@H](Cc2cccc(Cl)c2)N(C)C(=O)[C@H](C(C)C)NC(=O)[C@H](C)NC(=O)CSC[C@@H](C(=O)NCCOCCOCCOCCOCCC(N)=O)NC(=O)[C@H](Cc2ccc(O)cc2)N(C)C(=O)[C@H](Cc2ccccc2)NC(=O)[C@H](CCCNC(=N)N)NC(=O)[C@H](CCC(N)=O)NC(=O)[C@H]([C@@H](C)CC)NC1=O [compound 174] ({CH2CO}-AV[NMePhe(3-Cl)]V[NMeW]NRY(Me)IIQRF[NMeY]C[PEG4]-NH2; thioether N-15) | – | – | 7.69 | 7.12
CC[C@H](C)[C@@H]1NC(=O)[C@H](Cc2ccc(OCC(=O)O)cc2)NC(=O)[C@H](Cc2ccc(N)nc2)NC(=O)[C@H](CC(N)=O)NC(=O)[C@H](Cc2c[nH]c3ccccc23)NC(=O)[C@H](C(C)C)NC(=O)[C@H](Cc2cccc(Cl)c2)N(C)C(=O)[C@H](C(C)C)NC(=O)[C@H](C)NC(=O)CSC[C@@H](C(=O)NCCOCCOCCOCCOCCC(N)=O)NC(=O)[C@H](Cc2ccc(C(=O)O)cc2)N(C)C(=O)[C@H](Cc2cccc(C(=O)NCCOCCOCCOCCOCCC(=O)O)c2)NC(=O)[C@H](CCCNC(=N)N)NC(=O)[C@H](CCC(N)=O)NC(=O)[C@H]([C@@H](C)CC)NC1=O [compound 116] ({CH2CO}-AV[NMePhe(3-Cl)]VWN[3Pal(6-NH2)]Y(Carboxymethyl)IIQR[X1](PEG4)[NMePhe(4-COOH)]C[PEG4]-NH2; thioether N-15) | 8.07 | 7.45 | – | –
CC[C@H](C)[C@@H]1NC(=O)[C@H](Cc2ccc(OC)cc2)NC(=O)[C@H](Cc2ccc(N)nc2)NC(=O)[C@H](CC(N)=O)NC(=O)[C@H](Cc2cn(CC(=O)O)c3ccccc23)NC(=O)[C@H](C(C)C)NC(=O)[C@H](Cc2cccc(Cl)c2)N(C)C(=O)[C@H](C(C)C)NC(=O)[C@H](C)NC(=O)CSC[C@@H](C(=O)NCCOCCOCCOCCOCCC(N)=O)NC(=O)[C@H](Cc2ccc(O)cc2)N(C)C(=O)[C@H](Cc2ccncc2)NC(=O)[C@H](CCCCNC(=O)N2CCN(CC(=O)O)CC2)NC(=O)[C@H](CCCCN2CCOCC2)NC(=O)[C@H]([C@@H](C)CC)NC1=O [compound 8] ({CH2CO}-AV[NMePhe(3-Cl)]V[Trp(1-CH2COOH)]N[3Pal(6-NH2)]Y(Me)II[Nle(6-morpholino)]K([CO-Piperazinyl(4-CH2COOH)])[4Pal][NMeY]C[PEG4]-NH2; thioether N-15) | – | – | 7.97 | 6.95
CC[C@H](C)[C@@H]1NC(=O)[C@H](Cc2ccc(OCC(=O)N3CCN(CC(=O)O)CC3)cc2)NC(=O)[C@H](Cc2ccc(N)nc2)NC(=O)[C@H](CC(N)=O)NC(=O)[C@H](Cc2cn(CC(=O)O)c3ccccc23)NC(=O)[C@H](C(C)C)NC(=O)[C@H](Cc2cccc(Cl)c2)N(C)C(=O)[C@H](C(C)C)NC(=O)[C@H](C)NC(=O)CSC[C@@H](C(=O)NCCOCCOCCOCCOCCC(N)=O)NC(=O)[C@H](Cc2ccc(O)cc2)N(C)C(=O)[C@H](Cc2ccncc2)NC(=O)[C@H](CCCCN2CCOCC2)NC(=O)[C@H](CCCCNC(=O)N2CCN(CC(=O)O)CC2)NC(=O)[C@H]([C@@H](C)CC)NC1=O [compound 17] ({CH2CO}-AV[NMePhe(3-Cl)]V[Trp(1-CH2COOH)]N[3Pal(6-NH2)]Y(CH2CON(CH2CH2)2NCH2COOH)IIK([CO-Piperazinyl(4-CH2COOH)])[Nle(6-morpholino)][4Pal][NMeY]C[PEG4]-NH2; thioether N-15) | – | – | 8.37 | 6.30
CC[C@H](C)[C@@H]1NC(=O)[C@H](Cc2ccc(OCC(=O)N3CCN(CC(=O)O)CC3)cc2)NC(=O)[C@H](Cc2ccc(O)cc2)NC(=O)[C@H](CC(N)=O)NC(=O)[C@H](Cc2c[nH]c3ncccc23)NC(=O)[C@H](C(C)C)NC(=O)[C@H](Cc2cccc(Cl)c2)N(C)C(=O)[C@H](C(C)C)NC(=O)[C@H](C)NC(=O)CSC[C@@H](C(=O)NCCOCCOCCOCCOCCC(N)=O)NC(=O)[C@H](Cc2ccc(O)cc2)N(C)C(=O)[C@H](Cc2cccc(C(=O)O)c2)NC(=O)[C@H](CCCCN2CCOCC2)NC(=O)[C@H](CCC(=O)NCCOCCOCCOCCOCCOCCOCCOCCOC)NC(=O)[C@H]([C@@H](C)CC)NC1=O [compound 21] ({CH2CO}-AV[NMePhe(3-Cl)]V[Trp(7-aza)]NYY(CH2CON(CH2CH2)2NCH2COOH)IIE(NH(CH2CH2O)8Me)[Nle(6-morpholino)][Phe(3-COOH)][NMeY]C[PEG4]-NH2; thioether N-15) | – | – | 8.27 | 7.00
